From ChEMBL document CHEMBL4359853, “Antiproliferative activity of (R)-4'-methylklavuzon on hepatocellular carcinoma cells and EpCAM+/CD133+ cancer stem cells via SIRT1 and Exportin-1 (CRM1) inhibition” (Eur J Med Chem, 2019)
Calls of active or inactive are those of the source.

Legend:
[1] = species on record: Homo sapiens; assay: Inhibition of Sirtuin/HDAC in human HuH7 cells expressing positive EpCAM/CD133 assessed as decrease in cell viability measured after 24 hrs; assay type: cell-based
[2] = species on record: Homo sapiens; assay: Inhibition of class 1/2 HDAC in human HuH7 EpCAM/CD133 positive cells nuclear extract at 0.1 to 81 uM after 24 hrs by fluorescence based assay
[3] = target: Exportin-1 (Homo sapiens) (UniProt O14980); assay: Inhibition of CRM1 in human HepG2 cells assessed as accumulation of RIOK2 in nucleus at 0.1 to 10 uM measured after 6 hrs by DAPI staining based confocal microscopy analysis; assay type: cell-based
Chain of Exportin-1 (Homo sapiens) (O14980 whole entry): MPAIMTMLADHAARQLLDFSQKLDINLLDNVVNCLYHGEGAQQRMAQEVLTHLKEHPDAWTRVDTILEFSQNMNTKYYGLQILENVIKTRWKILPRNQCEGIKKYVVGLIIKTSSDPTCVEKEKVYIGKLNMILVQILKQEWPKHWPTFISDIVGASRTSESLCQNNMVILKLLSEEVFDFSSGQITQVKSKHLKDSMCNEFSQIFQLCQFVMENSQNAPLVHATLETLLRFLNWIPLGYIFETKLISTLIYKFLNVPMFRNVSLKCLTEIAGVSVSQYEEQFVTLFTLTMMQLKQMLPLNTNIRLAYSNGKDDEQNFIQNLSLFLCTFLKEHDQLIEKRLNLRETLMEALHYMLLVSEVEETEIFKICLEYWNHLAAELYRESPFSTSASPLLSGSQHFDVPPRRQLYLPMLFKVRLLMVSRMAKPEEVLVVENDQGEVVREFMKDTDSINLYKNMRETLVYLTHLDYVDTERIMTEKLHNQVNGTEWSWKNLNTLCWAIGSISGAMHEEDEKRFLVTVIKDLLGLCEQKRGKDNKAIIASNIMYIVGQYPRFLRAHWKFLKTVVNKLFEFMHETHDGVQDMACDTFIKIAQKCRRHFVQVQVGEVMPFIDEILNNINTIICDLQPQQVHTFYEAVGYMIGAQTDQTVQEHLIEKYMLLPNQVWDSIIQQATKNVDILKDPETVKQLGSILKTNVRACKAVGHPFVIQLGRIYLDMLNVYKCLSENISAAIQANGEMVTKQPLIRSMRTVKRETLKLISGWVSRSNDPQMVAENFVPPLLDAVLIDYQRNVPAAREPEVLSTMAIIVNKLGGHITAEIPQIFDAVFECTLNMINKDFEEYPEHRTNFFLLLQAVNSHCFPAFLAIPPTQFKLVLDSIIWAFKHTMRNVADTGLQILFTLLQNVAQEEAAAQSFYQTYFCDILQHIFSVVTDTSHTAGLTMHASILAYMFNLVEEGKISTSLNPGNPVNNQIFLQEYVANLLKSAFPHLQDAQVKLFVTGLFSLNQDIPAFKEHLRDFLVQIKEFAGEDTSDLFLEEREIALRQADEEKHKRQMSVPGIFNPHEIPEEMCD

[4] = tested on: Huh-7; assay: Upregulation of SIRT1 in human HuH7 cells measured after 24 hrs by ELISA; assay type: functional, cell-based
[5] = tested on: Huh-7; assay: Cell cycle arrest in human HuH7 positive EpCAM/CD133 cells assessed as increase in accumulation at G1 phase at 1 to 1.25 uM measured after 48 hrs by propidium iodide staining based flow cytometry analysis; assay type: functional
[6] = tested on: Huh-7; assay: Cytotoxicity against human HuH7 cells expressing positive EpCAM/CD133 assessed as reduction in cell viability measured after 72 hrs by MTT assay; assay type: functional, cell-based; details: Huh-7, 72 h
[7] = tested on: Huh-7; assay: Induction of apoptosis in human HuH7 cells assessed as loss of spheroid morphology at 62.5 uM measured after 48 hrs by inverted light microscopy based matrigel assay; assay type: functional, cell-based
[8] = tested on: Huh-7; assay: Cytotoxicity against human HuH7 cells expressing positive EpCAM/CD133 assessed as reduction in cell viability measured after 48 hrs by MTT assay; assay type: functional, cell-based; details: Huh-7, 48 h
[9] = tested on: Huh-7; assay: Induction of apoptosis in human HuH7 cells assessed as change in cell morphology at 0.1 to 10 uM measured after 48 hrs by 2D microscopic analysis; assay type: functional, cell-based
[10] = species on record: Homo sapiens; assay: Inhibition of Sirtuin/HDAC in human HuH7 cells expressing positive EpCAM/CD133 assessed as decrease in enzymatic activity at 0.10 to 5 uM measured after 24 hrs relative to control; assay type: cell-based
[11] = tested on: Huh-7; assay: Cell cycle arrest in human HuH7 cells assessed as increase in cell accumulation at G2 phase at 10 uM measured after 48 hrs by propidium iodide staining based flow cytometry analysis; assay type: functional
[12] = tested on: Huh-7; assay: Upregulation of SIRT1 in human HuH7 cells assessed as fold change at 3 uM measured after 24 hrs by ELISA relative to control; assay type: functional
[13] = target: Exportin-1 (Homo sapiens) (UniProt O14980); assay: Inhibition of CRM1 in human HuH7 cells assessed as accumulation of RIOK2 in nucleus at 1 and 10 uM measured after 24 hrs by DAPI staining based confocal microscopy analysis; assay type: cell-based
[14] = target: T1, NAD-dependent protein deacetylase sirtuin-1 (Homo sapiens) (UniProt Q96EB6); assay: Inhibition of human recombinant SIRT1 at 100 uM using FLUOR DE LYS SIRT1, deacetylase as substrate preincubated for 2 mins followed by substrate addition measured after 1 hr in presence of NAD+ by fluorescence assay relative to control
T1 sequence (whole entry): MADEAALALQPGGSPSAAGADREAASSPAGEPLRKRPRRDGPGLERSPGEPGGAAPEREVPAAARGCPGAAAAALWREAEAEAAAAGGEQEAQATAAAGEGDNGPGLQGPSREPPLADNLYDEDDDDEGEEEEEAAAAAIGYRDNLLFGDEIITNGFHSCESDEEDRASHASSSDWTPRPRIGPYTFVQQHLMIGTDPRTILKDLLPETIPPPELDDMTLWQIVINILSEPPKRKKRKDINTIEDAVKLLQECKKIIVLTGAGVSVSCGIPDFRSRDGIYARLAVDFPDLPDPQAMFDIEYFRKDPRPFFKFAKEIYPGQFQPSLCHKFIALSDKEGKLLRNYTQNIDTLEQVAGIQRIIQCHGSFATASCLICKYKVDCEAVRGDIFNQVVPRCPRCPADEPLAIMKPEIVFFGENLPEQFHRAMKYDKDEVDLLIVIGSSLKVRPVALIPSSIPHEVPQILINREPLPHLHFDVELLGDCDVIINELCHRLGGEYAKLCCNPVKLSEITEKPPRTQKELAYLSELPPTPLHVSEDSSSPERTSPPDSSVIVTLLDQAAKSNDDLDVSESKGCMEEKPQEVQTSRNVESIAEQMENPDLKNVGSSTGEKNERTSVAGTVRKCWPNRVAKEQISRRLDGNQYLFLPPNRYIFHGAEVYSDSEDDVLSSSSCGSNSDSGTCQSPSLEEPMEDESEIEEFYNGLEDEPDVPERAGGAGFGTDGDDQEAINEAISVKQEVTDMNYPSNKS

[15] = tested on: HepG2; assay: Cytotoxicity against human HepG2 cells assessed as reduction in cell viability measured after 72 hrs by MTT assay; assay type: functional, cell-based; details: HepG2, 72 h
[16] = tested on: Huh-7; assay: Cell cycle arrest in human HuH7 negative EpCAM/CD133 cells assessed as increase in accumulation at G2 phase at 10 uM measured after 48 hrs by propidium iodide staining based flow cytometry analysis; assay type: functional
[17] = species on record: Homo sapiens; assay: Inhibition of Sirtuin/HDAC in human HUH7 cells assessed as decrease in cell viability measured after 24 hrs; assay type: cell-based
[18] = species on record: Homo sapiens; assay: Inhibition of Sirtuin/HDAC in human HUH7 negative EpCAM/CD133 cells assessed as decrease in enzymatic activity at 0.10 to 5 uM measured after 24 hrs relative to control
[19] = tested on: Huh-7; assay: Cytotoxicity against human HuH7 cells assessed as reduction in cell viability measured after 48 to 72 hrs by MTT assay; assay type: functional, cell-based
[20] = tested on: HepG2; assay: Induction of apoptosis in human 3D HepG2 spheroids at 10 uM measured after 24 hrs by propidium iodide staining based immunofluorescence microscopy analysis; assay type: functional, cell-based
[21] = tested on: Huh-7; assay: Induction of apoptosis in human HuH7 negative EpCAM/CD133 cells assessed as change in cell number at 0.1 to 10 uM measured after 48 hrs by 2D microscopic analysis; assay type: functional, cell-based
[22] = tested on: Huh-7; assay: Upregulation of p27 expression in human HuH7 cells at 1 to 3 uM measured after 24 to 72 hrs by SYBR-green based qPCR analysis; assay type: functional, cell-based
[23] = tested on: Huh-7; assay: Induction of apoptosis in human HuH7 negative EpCAM/CD133 cells assessed as increase in early apoptotic cells measured after 48 hrs by Annexin V-FITC/propidium iodide staining based flow cytometry analysis; assay type: functional, cell-based
[24] = tested on: Huh-7; assay: Induction of apoptosis in human HuH7 cells expressing positive EpCAM/CD133 assessed as change in cell morphology at 0.1 to 10 uM measured after 48 hrs by 2D microscopic analysis; assay type: functional, cell-based
[25] = target: Histone deacetylase 1 (Homo sapiens) (UniProt Q13547); assay: Inhibition of human recombinant HDAC1 using FLUOR DE LYS SIRT1, deacetylase as substrate preincubated for 2 mins followed by substrate addition measured after 1 hr by fluorescence assay
Chain of Histone deacetylase 1 (Homo sapiens) (Q13547 whole entry): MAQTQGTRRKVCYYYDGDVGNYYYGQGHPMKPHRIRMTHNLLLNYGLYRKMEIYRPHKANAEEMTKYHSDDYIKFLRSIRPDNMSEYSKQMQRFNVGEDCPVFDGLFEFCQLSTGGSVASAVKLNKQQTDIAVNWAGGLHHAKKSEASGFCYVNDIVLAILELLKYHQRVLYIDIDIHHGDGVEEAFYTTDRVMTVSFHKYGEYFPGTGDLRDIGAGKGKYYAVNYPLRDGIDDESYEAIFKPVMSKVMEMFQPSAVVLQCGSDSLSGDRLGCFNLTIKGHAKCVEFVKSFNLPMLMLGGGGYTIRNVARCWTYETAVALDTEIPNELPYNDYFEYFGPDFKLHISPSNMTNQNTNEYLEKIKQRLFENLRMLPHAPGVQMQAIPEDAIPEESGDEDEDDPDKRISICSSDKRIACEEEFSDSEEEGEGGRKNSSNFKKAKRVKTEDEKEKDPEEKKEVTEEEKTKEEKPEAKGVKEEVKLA

[26] = tested on: Huh-7; assay: Cytotoxicity against human HuH7 cells assessed as effect on SIRT1 protein level at 5 uM measured after 24 hrs by ELISA; assay type: functional, cell-based
[27] = tested on: Huh-7; assay: Cell cycle arrest in human HuH7 negative EpCAM/CD133 cells assessed as increase in accumulation at G1 phase at 10 uM measured after 48 hrs by propidium iodide staining based flow cytometry analysis; assay type: functional
[28] = tested on: Huh-7; assay: Upregulation of p21 expression in human HuH7 cells expressing negative EpCAM/CD133 at 1 to 3 uM measured after 72 hrs by SYBR-green based qPCR analysis; assay type: functional, cell-based

Cc1ccc([C@H]2CC=CC(=O)O2)c2ccccc12
2.5 µM: IC50 [8]
3.9: fold change (FC) [12]
inactive: inhibition [2] | inhibition [25]
50%: inhibition [14]
32 to 39%: inhibition [10]
1.25 µM: IC50 [6] | IC50 [19]
active: inhibition [1] | inhibition [3] | Activity [4] Dose-dependent effect | Activity [5] | Activity [7] | Activity [9] | Activity [11] | inhibition [13] | Activity [16] | inhibition [17] | Activity [18] | Activity [20] | Activity [21] | Activity [22] | Activity [23] Dose-dependent effect | Activity [24] | Activity [26] | Activity [27] | Activity [28]
0.1 µM: IC50 [15]
